Test results taken from article PMC11464693 (Nature Communications, 2024).
Values belong to the molecule of their own block, whether it stands above or below them.

Columns and labels:
[1] = target: T1, laccase (Lac) (Bacillus subtilis, UniProt P07788); test: ABTS oxidation at […] nm, whole cells; assay type: cell-based; settings: 5 mM ABTS, 37 °C, pH optimum 5.0; surface-displayed enzyme
T1 sequence (P07788 1-513): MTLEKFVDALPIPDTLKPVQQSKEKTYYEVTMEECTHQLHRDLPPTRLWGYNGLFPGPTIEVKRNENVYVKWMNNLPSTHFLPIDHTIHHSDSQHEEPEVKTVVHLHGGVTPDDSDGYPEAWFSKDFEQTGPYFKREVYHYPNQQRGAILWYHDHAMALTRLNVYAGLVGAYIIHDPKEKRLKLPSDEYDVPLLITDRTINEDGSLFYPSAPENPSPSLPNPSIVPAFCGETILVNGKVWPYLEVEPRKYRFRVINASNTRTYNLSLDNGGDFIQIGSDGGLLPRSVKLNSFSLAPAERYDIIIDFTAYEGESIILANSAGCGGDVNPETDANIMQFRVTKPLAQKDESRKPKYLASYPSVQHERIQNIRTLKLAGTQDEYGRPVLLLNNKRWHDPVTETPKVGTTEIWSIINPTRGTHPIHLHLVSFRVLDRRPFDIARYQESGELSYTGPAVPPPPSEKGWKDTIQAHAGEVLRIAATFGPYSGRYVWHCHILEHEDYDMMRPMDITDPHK

[2] = target: T2, XylD (Caulobacter vibrioides, UniProt A0A0H3C6H6); test: semicarbazone assay at […] nm; assay type: biochemical; settings: 37 °C
T2 sequence (A0A0H3C6H6 1-591): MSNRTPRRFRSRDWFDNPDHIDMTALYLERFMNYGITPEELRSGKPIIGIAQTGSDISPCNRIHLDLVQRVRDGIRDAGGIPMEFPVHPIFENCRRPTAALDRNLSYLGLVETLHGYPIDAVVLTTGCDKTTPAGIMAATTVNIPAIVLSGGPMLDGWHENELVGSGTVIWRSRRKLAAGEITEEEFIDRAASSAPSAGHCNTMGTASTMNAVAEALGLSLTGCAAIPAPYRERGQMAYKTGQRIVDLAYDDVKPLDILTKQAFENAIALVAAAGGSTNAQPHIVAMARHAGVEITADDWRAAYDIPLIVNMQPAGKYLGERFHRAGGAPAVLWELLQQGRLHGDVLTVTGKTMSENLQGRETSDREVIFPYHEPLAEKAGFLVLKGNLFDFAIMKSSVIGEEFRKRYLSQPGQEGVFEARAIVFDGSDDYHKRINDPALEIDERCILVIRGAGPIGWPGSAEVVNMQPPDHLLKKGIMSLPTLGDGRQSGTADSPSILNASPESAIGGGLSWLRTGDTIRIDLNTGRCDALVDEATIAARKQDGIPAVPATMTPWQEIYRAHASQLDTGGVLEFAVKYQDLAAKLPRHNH

[3] = target: T3, XDH (Caulobacter vibrioides, UniProt B8H1Z0); test: NADH formation at […] nm; assay type: biochemical; settings: 10 mM D-xylose, 1 mM NAD+, 37 °C
T3 sequence (B8H1Z0 1-248): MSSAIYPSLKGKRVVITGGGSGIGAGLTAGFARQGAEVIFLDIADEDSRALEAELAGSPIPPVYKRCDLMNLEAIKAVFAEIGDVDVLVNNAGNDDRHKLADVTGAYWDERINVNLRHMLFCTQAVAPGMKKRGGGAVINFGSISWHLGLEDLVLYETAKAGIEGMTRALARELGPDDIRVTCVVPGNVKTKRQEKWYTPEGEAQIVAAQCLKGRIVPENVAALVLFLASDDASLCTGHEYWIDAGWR

[4] = target: T4, KGSADH (Caulobacter vibrioides, UniProt A0A0H3C801); test: NADH formation at […] nm; assay type: biochemical
T4 sequence (A0A0H3C801 1-478): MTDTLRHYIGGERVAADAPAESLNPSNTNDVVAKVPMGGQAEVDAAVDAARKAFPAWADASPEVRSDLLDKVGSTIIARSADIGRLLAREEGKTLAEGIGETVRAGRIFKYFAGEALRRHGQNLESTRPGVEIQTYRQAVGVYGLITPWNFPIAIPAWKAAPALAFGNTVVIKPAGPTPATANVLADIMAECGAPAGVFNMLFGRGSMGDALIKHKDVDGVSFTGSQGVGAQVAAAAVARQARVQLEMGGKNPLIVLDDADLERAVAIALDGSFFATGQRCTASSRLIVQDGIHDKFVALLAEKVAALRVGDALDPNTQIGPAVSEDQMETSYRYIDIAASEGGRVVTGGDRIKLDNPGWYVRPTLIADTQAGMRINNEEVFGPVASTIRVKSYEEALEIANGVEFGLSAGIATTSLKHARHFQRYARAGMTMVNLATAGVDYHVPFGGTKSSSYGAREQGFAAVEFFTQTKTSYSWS

[5] = target: XylC (Caulobacter vibrioides, UniProt A0A0H3C6P8); test: decrease of p-nitrophenol absorbance at […] nm; assay type: biochemical; settings: spontaneous hydrolysis controlled
Sequence of XylC (A0A0H3C6P8 1-289): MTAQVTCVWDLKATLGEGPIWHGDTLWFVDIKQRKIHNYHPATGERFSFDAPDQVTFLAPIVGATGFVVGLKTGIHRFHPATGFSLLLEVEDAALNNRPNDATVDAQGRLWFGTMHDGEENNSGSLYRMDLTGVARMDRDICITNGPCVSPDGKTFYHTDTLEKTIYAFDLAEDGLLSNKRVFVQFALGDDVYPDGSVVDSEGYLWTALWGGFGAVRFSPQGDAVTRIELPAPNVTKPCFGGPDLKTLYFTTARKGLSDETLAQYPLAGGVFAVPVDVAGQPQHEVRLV

Compound: CCn1c(=NN=c2sc3cc(S(=O)(=O)O)ccc3n2CC)sc2cc(S(=O)(=O)O)ccc21 [ABTS, 2,2’-azino-bis (3-ethylbenzothiazoline-6-sulfonic acid)]
- ABTS oxidation at 420 nm, whole cells [1]: The oxidation activity of E. coli-Lac towards ABTS was calibrated by measuring the absorbance

Compound: O=C(O)[C@H](O)[C@@H](O)[C@H](O)CO [D-xylonic acid]
- semicarbazone assay at 250 nm [2]: D-xylonic acid would be transformed into 2-keto-3-deoxyxylic acid by XylD

Compound: OC1OC[C@@H](O)[C@H](O)[C@H]1O (stereo partly drawn) [D-xylose]
- NADH formation at 340 nm [3]: D-xylose is oxidized into D-xylono-lactone and generates NADH catalyzed by XDH

- NADH formation at 340 nm [3]: catalyzed by XDH using NAD^+ as coenzyme
Compound: NC(=O)c1ccc[n+]([C@@H]2O[C@H](COP(=O)(O)OP(=O)(O)OC[C@H]3O[C@@H](n4cnc5c(N)ncnc54)[C@H](O)[C@@H]3O)[C@@H](O)[C@H]2O)c1 [NAD^+]
- NADH formation at 340 nm ([4]; glutaraldehyde as substrate): activity of KGSADH by following the rate of NAD^+ reduction

Compound: O=CCCCC=O [glutaraldehyde]
- NADH formation at 340 nm ([4]; NAD+, substitute substrate): monitored by measuring the generation of NADH using analogous glutaraldehyde as substrate

Compound: O=C1O[C@H](CO)[C@H](O)[C@H]1O [xylono-1,4-lactone]
- decrease of p-nitrophenol absorbance at 405 nm [5]: To examine the activity of XylC, D-xylono-lactone was used as substrate to produce D-xylonic acid
